Where a chain is given by its changes, count along the chain named. Where two headings read alike, the source gives them in different places.
Tests used:
RET(KD: 658-1114 G810R) = target: T1, RET(KD: 658-1114 G810R) (Homo sapiens, UniProt P07949, G810R); test: HiBiT-Degradation, RET G810R degradation assay (Nano-Glo HiBiT Lytic), 293T.165 cells; format: cell-based; settings: for Emax / DC50: 6.0 hours
T1 construct: 658-1114; expressed in transfected cells; host or cells: 293T.165 (293T cells, generated in-house)
T1 sequence (P07949 658-1114 G810R): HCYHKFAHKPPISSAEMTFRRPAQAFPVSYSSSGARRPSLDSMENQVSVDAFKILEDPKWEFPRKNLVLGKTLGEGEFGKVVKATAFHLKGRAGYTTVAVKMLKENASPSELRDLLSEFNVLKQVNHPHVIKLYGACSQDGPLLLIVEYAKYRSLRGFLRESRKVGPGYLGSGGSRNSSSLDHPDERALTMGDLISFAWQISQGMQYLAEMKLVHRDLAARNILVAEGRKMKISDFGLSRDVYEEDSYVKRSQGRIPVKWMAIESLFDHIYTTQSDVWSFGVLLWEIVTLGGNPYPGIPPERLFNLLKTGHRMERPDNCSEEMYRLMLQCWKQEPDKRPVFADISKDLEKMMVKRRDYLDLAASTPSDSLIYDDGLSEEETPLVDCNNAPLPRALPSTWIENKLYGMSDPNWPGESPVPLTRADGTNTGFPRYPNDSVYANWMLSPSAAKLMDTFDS
How it was run: (§1)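 Cells were plated and dosed with an 11-point half-log series (highest 10 μM) in duplicate. After 6 hours they were lysed with HiBiT lytic detection reagent and luminescence measured. DC50 and percent remaining protein (Emax) came from the dose-response curves.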

RET (658-1114) = target: T2, RET (658-1114) (Homo sapiens, UniProt P07949); test: HiBiT-Degradation, RET wild-type degradation assay (Nano-Glo HiBiT Lytic), 293T.144 cells; format: cell-based; settings: for DC50 / Emax: 6.0 hours
T2 construct: 658-1114; expressed in transfected cells; host or cells: 293T.144 (293T cells, generated in-house)
T2 sequence (P07949 658-1114): T1 sequence (P07949 658-1114 G810R) with R153G
How it was run: as §1

[1] = % remaining protein, read-out: 293T.165 RET(KD: 658-1114 G810R) 6.0 hours (Emax)
[2] = half-maximal degradation concentration, read-out: 293T.165 RET(KD: 658-1114 G810R) 6.0 hours (DC50)
[3] = RET G810R, read-out: HiBiT-Degradation 293T.165 RET(KD: 658-1114 G810R) 6.0 hours (DC50)
[4] = RET G810R, read-out: HiBiT-Degradation 293T.165 RET(KD: 658-1114 G810R) 6.0 hours (Emax)
[5] = RET wild-type, read-out: HiBiT-Degradation 293T.144 RET (658-1114) 6.0 hours (DC50)
[6] = RET wild-type, read-out: HiBiT-Degradation 293T.144 RET (658-1114) 6.0 hours (Emax)
[7] = % remaining protein, read-out: 293T.144 RET (658-1114) 6.0 hours (Emax)
[8] = half-maximal degradation concentration, read-out: 293T.144 RET (658-1114) 6.0 hours (DC50)
[9] = HiBiT-Degradation, read-out: 293T.165 RET(KD: 658-1114 G810R) 6.0 hours (DC50)
[10] = HiBiT-Degradation, read-out: 293T.144 RET (658-1114) 6.0 hours (DC50)
[11] = HiBiT-Degradation, read-out: 293T.144 RET (658-1114) 6.0 hours (Emax)

Compound | Emax (RET(KD: 658-1114 G810R); [1]) | DC50 (RET(KD: 658-1114 G810R); [2]) | HiBiT-Degradation 293T.165 RET(KD: 658-1114 G810R) 6.0 hours (IP) [nM] (RET(KD: 658-1114 G810R); RET G810R) | DC50 (RET(KD: 658-1114 G810R); [3]) | Emax (RET(KD: 658-1114 G810R); [4]) | HiBiT-Degradation 293T.144 RET (658-1114) 6.0 hours (IP) [nM] (RET (658-1114); RET wild-type) | DC50 (RET (658-1114); [5]) | Emax (RET (658-1114); [6]) | 293T.165 RET(KD: 658-1114 G810R) 6.0 hours (IP) [nM] (RET(KD: 658-1114 G810R)) | 293T.144 RET (658-1114) 6.0 hours (IP) [nM] (RET (658-1114)) | Emax (RET (658-1114); [7]) | DC50 (RET (658-1114); [8]) | 293T.165 RET(KD: 658-1114 G810R) 6.0 hours (Emax) (RET(KD: 658-1114 G810R); HiBiT-Degradation) | 293T.165 RET(KD: 658-1114 G810R) 6.0 hours (IP) [nM] (RET(KD: 658-1114 G810R); HiBiT-Degradation) | DC50 (RET(KD: 658-1114 G810R); [9]) | 293T.144 RET (658-1114) 6.0 hours (IP) [nM] (RET (658-1114); HiBiT-Degradation) | DC50 (RET (658-1114); [10]) | Emax (RET (658-1114); [11])
N#Cc1cnn2cc(-c3cnn(C4CC5(C4)CN(C(=O)CN4CCC(c6ccc(NC7CCC(=O)NC7=O)cc6F)CC4)C5)c3)cc(-c3ccc(N4CCN(Cc5ccccn5)CC4)nc3)c12 (centres unmarked) [Compound 76, 6-[1-[2-[2-[4-[4-[(2,6-dioxo-3-piperidyl)amino]-2-fluoro-phenyl]-1-piperidyl]acetyl]-2-azaspiro[3.3]heptan-6-yl]pyrazol-4-yl]-4-[6-[4-(2-pyridylmethyl)piperazin-1-yl]-3-pyridyl]pyrazolo[1,5-a]pyridine-3-carbonitrile] | < 30% | < 100 nM | +++ (<100 nM = +++) | < 100 nM | < 30% | ++++ (< 50 nM = ++++) | < 50 nM | < 30% |  |  |  |  |  |  |  |  |  | 
COc1ccc(CC2(OC)CCN(c3ccc(-c4nc(-c5cnn([C@H]6CC[C@@H](N7CCN(c8ccc(NC9CCC(=O)NC9=O)cc8F)CC7)CC6)c5)cn5ncc(C#N)c45)cn3)CC2)cn1 (single isomer, unassigned) [Compound 147, 6-(1-((1s, 4s)-4-(4-(4-((2,6-Dioxopiperidin-3-yl)amino)-2-fluorophenyl)piperazin-1-yl)cyclohexyl)-1H-pyrazol-4-yl)-4-(6-(4-methoxy-4-((6-methoxypyridin-3-yl)methyl)piperidin-1-yl)pyridin-3-yl)pyrazolo[1,5-a]pyrazine-3-carbonitrile] | < 30% | < 100 nM |  |  |  |  |  |  | ++++ (<50 nM = ++++) | ++++ (<50 nM = ++++) | < 30% | < 50 nM |  |  |  |  |  | 
CCC1(C(=O)NC2CCC2)CCN(c2ccc(-c3nc(-c4cnn([C@H]5C[C@](F)(CN6CCN(c7ccc(N[C@H]8CCC(=O)NC8=O)cc7F)CC6)C5)c4)cn4ncc(C#N)c34)cn2)CC1 [Compound 186, 1-[5-[3-cyano-6-[1-[3-[[4-[4-[[(3S)-2,6-dioxo-3-piperidyl]amino]-2-fluoro-phenyl]piperazin-1-yl]methyl]-3-fluoro-cyclobutyl]pyrazol-4-yl]pyrazolo[1,5-a]pyrazin-4-yl]-2-pyridyl]-N-cyclobutyl-4-ethyl-piperidine-4-carboxamide] | < 50% | < 50 nM |  |  |  |  |  |  | ++++ (<50 nM = ++++) | ++++ (<50 nM = ++++) | < 50% | < 50 nM |  |  |  |  |  | 
CCC1(C(=O)NC2CCOCC2)CCN(c2ccc(-c3cc(-c4cnn([C@H]5CC[C@H](CCN6CCC(c7ccc(NC8CCC(=O)NC8=O)cc7F)CC6)CC5)c4)cn4ncc(C#N)c34)cn2)CC1 (stereo partly drawn) [Compound 40, 1-(5-(3-Cyano-6-(1-((trans)-4-(2-(4-(4-((2,6-dioxopiperidin-3-yl)amino)-2-fluorophenyl)piperidin-1-yl)ethyl)cyclohexyl)-1H-pyrazol-4-yl)pyrazolo[1,5-a]pyridin-4-yl)pyridin-2-yl)-4-ethyl-N-(tetrahydro-2H-pyran-4-yl)piperidine-4-carboxamide] | < 30% | < 50 nM |  |  |  |  |  |  |  |  |  |  | ++++ (< 30% = ++++) | ++++ (< 50 nM = ++++) | < 50 nM | ++++ (< 50 nM = ++++) | < 50 nM | < 30%
N#Cc1cnn2cc(-c3cnn(C4CCN(C(=O)CC5(O)CCN(c6ccc(NC7CCC(=O)NC7=O)cc6F)CC5)CC4)c3)nc(-c3ccc(N4CCC(O)(Cc5ccccc5)CC4)nc3)c12 (centres unmarked) [Compound 117, 4-[6-(4-benzyl-4-hydroxy-1-piperidyl)-3-pyridyl]-6-[1-[1-[2-[1-[4-[(2,6-dioxo-3-piperidyl)amino]-2-fluoro-phenyl]-4-hydroxy-4-piperidyl]acetyl]-4-piperidyl]pyrazol-4-yl]pyrazolo[1,5-a]pyrazine-3-carbonitrile] | < 30% | < 50 nM |  |  |  |  |  |  | ++++ (<50 nM = ++++) | ++++ (<50 nM = ++++) | < 30% | < 50 nM |  |  |  |  |  | 
CCC1(NC(=O)C(C)C)CCN(c2ccc(-c3nc(-c4cnn([C@H]5CC[C@@H](N6CCN(c7ccc8c(N9CCC(=O)NC9=O)nn(C)c8c7F)CC6)CC5)c4)cn4ncc(C#N)c34)cn2)CC1 (single isomer, unassigned) [Compound 125, N-(1-(5-(3-Cyano-6-(1-((1s, 4s)-4-(4-(3-(2,4-dioxotetrahydropyrimidin-1(2H)-yl)-7-fluoro-1-methyl-1H-indazol-6-yl)piperazin-1-yl)cyclohexyl)-1H-pyrazol-4-yl)pyrazolo[1,5-a]pyrazin-4-yl)pyridin-2-yl)-4-ethylpiperidin-4-yl)isobutyramide] | < 30% | < 50 nM |  |  |  |  |  |  | ++++ (<50 nM = ++++) | ++++ (<50 nM = ++++) | < 30% | < 50 nM |  |  |  |  |  | 
COc1cc(N2CCN(C3CCC(n4cc(-c5cn6ncc(C#N)c6c(-c6ccc(N7CC8COCC(C7)N8Cc7ccccn7)nc6)n5)cn4)CC3)CC2)c(F)cc1NC1CCC(=O)NC1=O (centres unmarked) [Compound 205, 6-[1-[4-[4-[4-[(2,6-dioxo-3-piperidyl)amino]-2-fluoro-5-methoxy-phenyl]piperazin-1-yl]cyclohexyl]pyrazol-4-yl]-4-[6-[9-(2-pyridylmethyl)-3-oxa-7,9-diazabicyclo[3.3.1]nonan-7-yl]-3-pyridyl]pyrazolo[1,5-a]pyrazine-3-carbonitrile] | < 30% | < 100 nM |  |  |  |  |  |  | +++ (<100 nM = +++) | ++++ (<50 nM = ++++) | < 30% | < 50 nM |  |  |  |  |  | 
CC(C)NC(=O)C1(C)CCN(c2ccc(-c3cc(-c4ccc(N5CCN(C(=O)CN6CCC(c7ccc(NC8CCC(=O)NC8=O)cc7F)CC6)CC5)cc4)cn4ncc(C#N)c34)cc2)CC1 (centres unmarked) [Compound 50, 1-[4-[3-cyano-6-[4-[4-[2-[4-[4-[(2,6-dioxo-3-piperidyl)amino]-2-fluoro-phenyl]-1-piperidyl]acetyl]piperazin-1-yl]phenyl]pyrazolo[1,5-a]pyridin-4-yl]phenyl]-N-isopropyl-4-methyl-piperidine-4-carboxamide] | < 30% | < 100 nM |  |  |  |  |  |  |  |  |  |  | ++++ (< 30% = ++++) | ++++ (< 50 nM = ++++) | < 100 nM | ++++ (< 50 nM = ++++) | < 50 nM | < 30%
N#Cc1cnn2cc(-c3cnn(C4CCN(C(=O)CN5CCC(c6ccc(NC7CCC(=O)NC7=O)cc6F)CC5)CC4)c3)cc(-c3ccc(N4CC5CC(C4)N5Cc4cccnc4)nc3)c12 (centres unmarked) [Compound 68, 6-[1-[1-[2-[4-[4-[(2,6-dioxo-3-piperidyl)amino]-2-fluoro-phenyl]-1-piperidyl]acetyl]-4-piperidyl]pyrazol-4-yl]-4-[6-[6-(3-pyridylmethyl)-3,6-diazabicyclo[3.1.1]heptan-3-yl]-3-pyridyl]pyrazolo[1,5-a]pyridine-3-carbonitrile] | < 30% | < 50 nM | ++++ (< 50 nM = ++++) | < 50 nM | < 30% | ++++ (< 50 nM = ++++) | < 50 nM | < 30% |  |  |  |  |  |  |  |  |  | 
